# Where no end group is shown, it is not given here.
# Assays:
# [1] = system: Mtb; format: cell-based, Mycobacterium tuberculosis
# [2] = system: S. aureus (MS) NRS72; settings: MS) NRS72, 24 h
# [3] = system: S. aureus (MR) USA300; settings: USA300, 24 h
# [4] = system: M. tuberculosis H37Rv (virulent); settings: 96 h
# [5] = system: H. influenzae TD-4; settings: TD-4, 24 h
# [6] = system: M. smegmatis Mc^2 155; settings: Mc^2 155, 48 h
# [7] = target: the molecule itself; assay: negative-stain TEM + circular dichroism
molecule,measurement,setting,value
COc1c(N2C[C@@H]3CCCN[C@@H]3C2)c(F)cc2c(=O)c(C(=O)O)cn(C3CC3)c12 [moxifloxacin],Combinatorial effect with MAD1 (FIC),[1],synergizes
KRWHWWRRHWVVW-NH2 [MAD1],MIC,[2],>80 (20) µM
same,MIC,[3],>80 (20) µM
same,MIC,[4],5 µM
same,MIC,[5],80 (20) µM
same,MIC,[6],5(5) µM
KRWHWWRRHWVVW-NH2 [myco-membrane associated disruption 1 (MAD1) peptide],binding result,[7],binds

# From publication PMC8131206 (Nature biomedical engineering, 2021)
